This note sets out measurements from patent US10294229B2, “Heteroaryl substituted aminopyridine compounds” (BRISTOL-MYERS SQUIBB COMPANY, priority 2015, dated 2019).

Assay [1] deals with Human whole blood stimulated with a TLR2 agonist (lipoteichoic acid), IL-6 levels. Put plainly: IRAK4 Whole Blood Assay. In kind it is cell-based. The settings on record: Homo sapiens, lipoteichoic acid 10 μg/mL. In short, it runs like this: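 IL-6 was quantified by cytometric bead assay in supernatants of human blood (ACD-A) stimulated for 5 h with lipoteichoic acid at 10 μg/mL final. Compound exposure preceded stimulation for 60 min at 37 °C, 5% CO2.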

Assay [2] concerns the target IRAK4 (Homo sapiens (Human), UniProt Q9NWZ3). Put plainly: IRAK4 Inhibition Assay. In kind it is biochemical. The settings on record: ATP 500 μM; IRAK4 0.6 nM. The gist of the method: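 Readout: electrophoretic (LabChip) separation of fluorescent peptide substrate from phosphorylated product after EDTA quench. Reactions ran 60 min at room temperature with 0.6 nM IRAK4, 1.5 μM peptide and 500 μM ATP; inhibition referenced to no-enzyme (100%) and vehicle (0%) controls.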

Chain of IRAK4 (Q9NWZ3 whole entry, species assumed): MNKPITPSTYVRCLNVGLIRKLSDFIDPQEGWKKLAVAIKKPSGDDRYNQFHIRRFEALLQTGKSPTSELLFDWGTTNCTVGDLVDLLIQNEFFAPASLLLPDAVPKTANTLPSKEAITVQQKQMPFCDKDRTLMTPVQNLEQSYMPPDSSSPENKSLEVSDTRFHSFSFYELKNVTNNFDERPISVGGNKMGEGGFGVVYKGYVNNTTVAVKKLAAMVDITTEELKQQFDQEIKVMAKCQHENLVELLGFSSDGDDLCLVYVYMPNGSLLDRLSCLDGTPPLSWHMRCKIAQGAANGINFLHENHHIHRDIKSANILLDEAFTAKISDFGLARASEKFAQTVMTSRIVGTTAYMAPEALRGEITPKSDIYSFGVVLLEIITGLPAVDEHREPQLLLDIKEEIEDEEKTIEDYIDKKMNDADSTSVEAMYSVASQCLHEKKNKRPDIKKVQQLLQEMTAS

For orientation: EC50 means the concentration needed to bring the measured effect to its halfway point. A lower EC50 goes with higher potency in that assay. The term IC50 denotes the concentration at which inhibition is half-maximal. Regarding `CC(C)Nc1cc(-n2ncc3cc(C#N)cnc32)ncc1-c1cn([C@H]2CCN(C(=O)c3ccccn3)C[C@H]2O)nn1` [Example 183, 1-(5-(1-((3R,4S)-3-hydroxy-1-picolinoylpiperidin-4-yl)-1H-1,2,3-triazol-4-yl)-4-(isopropylamino)pyridin-2-yl)-1H-pyrazolo[3,4-b]pyridine-5-carbonitrile], the EC50 in assay [1] came to 520 nM. Also, the IC50 in assay [2] is 10 nM.
Regarding `CC(C)Nc1cc(-n2ncc3cc(C#N)cnc32)ncc1-c1cn([C@H]2CCN(C(=O)c3ccncc3)C[C@H]2O)nn1` [Example 185, 1-(5-(1-((3R,4S)-3-hydroxy-1-isonicotinoylpiperidin-4-yl)-1H-1,2,3-triazol-4-yl)-4-(isopropylamino)pyridin-2-yl)-1H-pyrazolo[3,4-b]pyridine-5-carbonitrile], the EC50 in assay [1] was found to be 1040 nM. In assay [2], the IC50 turned out to be 8 nM.
For `CC(C)Nc1cc(-n2ncc3cc(C#N)cnc32)ncc1-c1cn([C@@H]2CCNC[C@@H]2O)nn1` [Example 186, 1-(5-(1-((3S,4R)-3-hydroxypiperidin-4-yl)-1H-1,2,3-triazol-4-yl)-4-(isopropylamino)pyridin-2-yl)-1H-pyrazolo[3,4-b]pyridine-5-carbonitrile] the same measures were 1780 nM and 16 nM.
For the molecule `CC(=O)N1CCN(C(=O)Cn2cc(-c3cnc(-n4ncc5cc(C#N)cnc54)cc3NC(C)C)nn2)CC1` [Example 194, 1-(5-(1-(2-(4-acetylpiperazin-1-yl)-2-oxoethyl)-1H-1,2,3-triazol-4-yl)-4-(isopropylamino)pyridin-2-yl)-1H-pyrazolo[3,4-b]pyridine-5-carbonitrile], in assay [1], a half-maximal response (EC50) required 620 nM. Further, the IC50 in assay [2] is 6 nM.
Regarding `CC(C)Nc1cc(-n2ncc3cc(C#N)cnc32)ncc1-c1cn([C@H]2CC[C@H](NC(=O)OC(C)(C)C)CC2)nn1` [Example 212, tert-butyl ((trans)-4-(4-(6-(5-cyano-1H-pyrazolo[3,4-b]pyridin-1-yl)-4-(isopropylamino)pyridin-3-yl)-1H-1,2,3-triazol-1-yl)cyclohexyl)carbamate], the EC50 in assay [1] stood at 1400 nM. In addition, the IC50 in assay [2] is 3 nM.
`CC(C)Cn1cnc(-c2cnc(-n3ncc4cc(C#N)cnc43)cc2NC(C)C)c1` [Example 221, 1-(5-(1-isobutyl-1H-imidazol-4-yl)-4-(isopropylamino)pyridin-2-yl)-1H-pyrazolo[3,4-b]pyridine-5-carbonitrile] yielded an EC50 in assay [1] of 2210 nM. For the same molecule, the IC50 in assay [2] turned out to be 12 nM.
For `CC(C)Nc1cc(-n2ncc3cc(C#N)cnc32)ncc1-c1cn(C(C)C)cn1` [Example 225, 1-(5-(1-isopropyl-1H-imidazol-4-yl)-4-(isopropylamino)pyridin-2-yl)-1H-pyrazolo[3,4-b]pyridine-5-carbonitrile] the same measures were 5590 nM and 17 nM.
In turn, `CC(C)Nc1cc(-n2ncc3cc(C#N)cnc32)ncc1-c1cn(CC(F)F)cn1` [Example 226, 1-(5-(1-(2,2-difluoroethyl)-1H-imidazol-4-yl)-4-(isopropylamino)pyridin-2-yl)-1H-pyrazolo[3,4-b]pyridine-5-carbonitrile] gave an EC50 in assay [1] of 1480 nM. Moreover, the IC50 in assay [2] was found to be 16 nM.
In assay [1], `CC(C)Nc1cc(-n2ncc3cc(C#N)cnc32)ncc1-c1cn(CC2CC2)cn1` [Example 229, 1-(5-(1-(cyclopropylmethyl)-1H-imidazol-4-yl)-4-(isopropylamino)pyridin-2-yl)-1H-pyrazolo[3,4-b]pyridine-5-carbonitrile] showed an EC50 of 590 nM. Further, the IC50 in assay [2] amounted to 10 nM.
Regarding `CC(C)Nc1cc(-n2ncc3cc(C#N)cnc32)ncc1-c1cn(CC2CCC2)cn1` [Example 233, 1-(5-(1-(cyclobutylmethyl)-1H-imidazol-4-yl)-4-(isopropylamino)pyridin-2-yl)-1H-pyrazolo[3,4-b]pyridine-5-carbonitrile], the EC50 in assay [1] worked out at 530 nM. Besides, the IC50 in assay [2] came to 4 nM.
